Data published in US9072791B2, “Photostabilized pharmaceutical compositions” (DENKI KAGAKU KOGYO KABUSHIKI KAISHA, priority 2008, dated 2015).
Where “and” joins values, the source holds several entries; their conditions need not be identical. Equal values may be shown once. Read-outs that look alike come from different tables or passages of the source.

Key:
Type in all cases: physicochemical
[1] = Photostability test with additional light-shielding film LUMICOOL 1905 (Example 6); details: for Molecular weight (×10^4), irradiation time 0 h / Molecular weight (×10^4), irradiation time 150 h / Molecular weight (×10^4), irradiation time 300 h / Percent Conjugation (%), irradiation time 0 h / Percent Conjugation (%), irradiation time 150 h / Percent Conjugation (%), irradiation time 300 h: vial wrapped with LUMICOOL 1905;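 as to all read-outs here: molecular weight and drug conjugation percentage of the test conjugate, both determined by the method given for the first production procedure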
[2] = Photostability test in glass vials not shielded from light: gelation, molecular weight, percent conjugation of MTX (Example 4(2))
Experimental: Various photostabilizers (methyl p-hydroxybenzoate (methyl paraben), salicylic acid Na, thiosulfuric acid Na, thioglycolic acid Na, N-acetyltryptophan, and tryptophan) were each dissolved in a preparation buffer (0.9% NaCl containing 2 mM phosphate buffer, pH 7.4) to give a concentration of 1 or 10 mg/ml and thereafter filtered aseptically by passage through a 0.2-μm filter (Millex GV). A powder of the HA-MTX conjugate prepared in accordance with Production 1 was metered aseptically and dissolved in the filtered, photostabilizer-containing preparation buffer to give a concentration of 10 mg/mL; the thus prepared solutions were used as test samples. To prepare a control solution, the HA-MTX conjugate was dissolved in a photostabilizer-free preparation buffer at a concentration of 10 mg/mL.
The thus prepared solutions were put into glass vials not shielded from light and then irradiated with light.
The irradiation was so performed as to give an illuminance of 4000 Lux at 25° C. from a fluorescent lamp for use in a photostability test (TOSHIBA FL20S•D-EDL-D65) by means of a photostability tester (ETAC LABONIC LA110). After the lapse of specified periods (0 h, 25 h, 50 h, 100 h, 150 h, and 300 h) of irradiation, samples were taken and not only checked for gelation but also measured for the molecular weight of the HA-MTX conjugate and the percent conjugation of MTX (in the HA-MTX conjugate).
To evaluate the degree of gelation, the surface of each sample solution was pierced with a spatula and visually checked for the formation of an interface as the result of gelation. […] The apparatus used in gel filtration chromatography was equipped with OHpackSB-806HQ (Shodex) as a column, RI-71 (Shodex) as an […], and 875-UV (JASCO, detection wavelength: 304 nm) as a UV detector and analysis was conducted under the following conditions. Eluent: 50 mM sodium phosphate aqueous solution (pH 6.0); elution rate: 0.6 mL/min; column temperature: 40° C. By the above-described gel filtration chromatography, the elution times of the conjugate of interest were determined and the molecular weight of the same conjugate was determined from the relationship between the elution times and molecular weights of standard substances. As the standard substances, hyaluronic acid samples were prepared in varying molecular weights and their accurate values were calculated by the limiting viscosity method before it was used.

[3] = Fluorescing of the HA-MTX conjugate upon irradiation with light at specified wavelengths (Example 1); set-up: key: rated “+” when strong emission was observed after the irradiation; rated “−” when the emission after the irradiation was not different from the emission before the irradiation
Experimental: The HA-MTX conjugate obtained in Production 1 was dissolved in 0.9% NaCl containing 2 mM phosphate buffer (pH 7.3) to give a concentration of 9.9 mg/ml in terms of HA and the solution was irradiated with light at varying wavelengths (260 nm, 310 nm, 360 nm, and 405 nm) using a fluorescence detector for liquid chromatography (product of Hitachi, Ltd.; fluorescence detector of model F1050) to observe the gelation and fluorescing of the conjugate. To evaluate the gelation, the surface of the sample solution was pierced with a spatula and visually checked for the formation of an interface as the result of gelation. To observe fluorescing, the sample was irradiated with exciting light and the state of light emission from the sample was observed by direct visual checking before and after the irradiation; the result was rated “+” when strong emission was observed after the irradiation but rated “−” when the emission after the irradiation was not different from the emission before the irradiation.

[4] = Effect of photostabilizers on the excitation spectra of the HA-MTX conjugate (Example 4(1)); details: fluorescence at 458 nm
Experimental: Various photostabilizers (methyl p-hydroxybenzoate (methyl paraben), salicylic acid Na, thiosulfuric acid Na, and N-acetyltryptophan) were each dissolved in a preparation buffer (0.9% NaCl containing 2 mM phosphate buffer (pH 7.4)) to give a concentration of 9 mg/ml (but 0.9 mg/ml in the case of methyl paraben) and thereafter filtered aseptically by passage through a 0.2-μm filter (Millex GV). […] The test samples and the control were irradiated with light at 300-480 nm and the intensity of fluorescence at 458 nm was measured.

[5] = additive 1 mg/ml, 4000 Lux, 25° C., not shielded from light
[6] = additive 10 mg/ml, 4000 Lux, 25° C., not shielded from light

Compound: O=S([O-])([O-])=S.[Na+].[Na+] [Na thiosulfate, sodium thiosulfate]
- Molecular weight (×10^4), irradiation time 0 h ([1]; additive 1 mg/mL): 181 ×10^4
- Molecular weight (×10^4), irradiation time 150 h ([1]; additive 1 mg/mL): 186 ×10^4
- Molecular weight (×10^4), irradiation time 300 h ([1]; additive 1 mg/mL): 180 ×10^4
- Percent Conjugation (%), irradiation time 0 h ([1]; additive 1 mg/mL): 2.3%
- Percent Conjugation (%), irradiation time 150 h ([1]; additive 1 mg/mL): 2.2%
- Percent Conjugation (%), irradiation time 300 h ([1]; additive 1 mg/mL): 2.2%
- Molecular weight (×10^4), irradiation time 0 h ([1]; additive 10 mg/mL): 190 ×10^4
- Molecular weight (×10^4), irradiation time 150 h ([1]; additive 10 mg/mL): 188 ×10^4
- Molecular weight (×10^4), irradiation time 300 h ([1]; additive 10 mg/mL): 186 ×10^4
- Percent Conjugation (%), irradiation time 0 h ([1]; additive 10 mg/mL): 2.1%
- Percent Conjugation (%), irradiation time 150 h ([1]; additive 10 mg/mL): 2.2%
- Percent Conjugation (%), irradiation time 300 h ([1]; additive 10 mg/mL): 2.1%
- stabilizing effects (suppressing effects on the drop in molecular weight and the drop in percent conjugation of MTX) ([1]; with light-shielding film LUMICOOL 1905): comparable to those obtained in the case where complete shielding of light was ensured by aluminum foil
- Molecular weight (×10^4), irradiation time 0 h [2]: 190 ×10^4 and 181 ×10^4
- Molecular weight (×10^4), irradiation time 25 h [2]: 190 ×10^4 and 145 ×10^4
- Percent Conjugation (%) of MTX, irradiation time 0 h [2]: 2.1% and 2.3%
- Percent Conjugation (%) of MTX, irradiation time 25 h [2]: 2.2% and 2.1%
- Percent Conjugation (%) of MTX, irradiation time 50 h [2]: 2.3% and 1.5%
- Percent Conjugation (%) of MTX, irradiation time 100 h [2]: 2.1% and 0.8%
- Percent Conjugation (%) of MTX, irradiation time 150 h [2]: 2.2% and 0.6%
- Percent Conjugation (%) of MTX, irradiation time 300 h [2]: 2.1% and 0.4%
- suppressing drops in the molecular weight and percent conjugation [2]: considerably effective in suppressing drops in the molecular weight and percent conjugation even when the time of irradiation exceeded 100 hours

Compound: N[C@@H](Cc1c[nH]c2ccccc12)C(=O)O [Tryptophan, tryptophan]
- Molecular weight (×10^4), irradiation time 0 h ([1]; additive 1 mg/mL): 188 ×10^4
- Molecular weight (×10^4), irradiation time 150 h ([1]; additive 1 mg/mL): 176 ×10^4
- Molecular weight (×10^4), irradiation time 300 h ([1]; additive 1 mg/mL): 153 ×10^4
- Percent Conjugation (%), irradiation time 0 h ([1]; additive 1 mg/mL): 2.2%
- Percent Conjugation (%), irradiation time 150 h ([1]; additive 1 mg/mL): 2.2%
- Percent Conjugation (%), irradiation time 300 h ([1]; additive 1 mg/mL): 2.2%
- Molecular weight (×10^4), irradiation time 0 h ([1]; additive 10 mg/mL): 181 ×10^4
- Molecular weight (×10^4), irradiation time 150 h ([1]; additive 10 mg/mL): 177 ×10^4
- Molecular weight (×10^4), irradiation time 300 h ([1]; additive 10 mg/mL): 156 ×10^4
- Percent Conjugation (%), irradiation time 0 h ([1]; additive 10 mg/mL): 2.2%
- Percent Conjugation (%), irradiation time 150 h ([1]; additive 10 mg/mL): 2.2%
- Percent Conjugation (%), irradiation time 300 h ([1]; additive 10 mg/mL): 2.2%
- suppressing drops in the molecular weight and percent conjugation ([2]; added at 1 mg/mL, not shielded from light): could suppress drops in the molecular weight and percent conjugation for irradiation periods that did not exceed about 100 hours
- Molecular weight (×10^4), irradiation time 0 h [2, 5]: 188 ×10^4
- Molecular weight (×10^4), irradiation time 25 h [2, 5]: 171 ×10^4
- Molecular weight (×10^4), irradiation time 50 h [2, 5]: 138 ×10^4
- Molecular weight (×10^4), irradiation time 100 h [2, 5]: 112 ×10^4
- Molecular weight (×10^4), irradiation time 150 h [2, 5]: 83 ×10^4
- Molecular weight (×10^4), irradiation time 300 h [2, 5]: 45 ×10^4
- Percent Conjugation (%) of MTX, irradiation time 0 h [2, 5]: 2.2%
- Percent Conjugation (%) of MTX, irradiation time 25 h [2, 5]: 2.2%
- Percent Conjugation (%) of MTX, irradiation time 50 h [2, 5]: 2.2%
- Percent Conjugation (%) of MTX, irradiation time 100 h [2, 5]: 2.2%
- Percent Conjugation (%) of MTX, irradiation time 150 h [2, 5]: 2.1%
- Percent Conjugation (%) of MTX, irradiation time 300 h [2, 5]: 2.2%
- Molecular weight (×10^4), irradiation time 0 h [2, 6]: 181 ×10^4
- Molecular weight (×10^4), irradiation time 25 h [2, 6]: 175 ×10^4
- Molecular weight (×10^4), irradiation time 50 h [2, 6]: 164 ×10^4
- Molecular weight (×10^4), irradiation time 100 h [2, 6]: 118 ×10^4
- Molecular weight (×10^4), irradiation time 150 h [2, 6]: 110 ×10^4
- Molecular weight (×10^4), irradiation time 300 h [2, 6]: 70 ×10^4
- Percent Conjugation (%) of MTX, irradiation time 0 h [2, 6]: 2.2%
- Percent Conjugation (%) of MTX, irradiation time 25 h [2, 6]: 2.3%
- Percent Conjugation (%) of MTX, irradiation time 50 h [2, 6]: 2.2%
- Percent Conjugation (%) of MTX, irradiation time 100 h [2, 6]: 2.2%
- Percent Conjugation (%) of MTX, irradiation time 150 h [2, 6]: 2.2%
- Percent Conjugation (%) of MTX, irradiation time 300 h [2, 6]: 2.2%

Compound: MTX-α-PhePhe-NHC2H4NH-HA [HA-MTX conjugate]
- Fluorescence ([3]; irradiation at 260 nm): −
- Fluorescence ([3]; irradiation at 310 nm): −
- Fluorescence ([3]; irradiation at 360 nm): +
- Fluorescence ([3]; irradiation at 405 nm): +
- main excitation wavelengths ([4]; control solution 1 mg/ml, no photostabilizer): 320-430 nm
- excitation maximum wavelength (Ex λmax) [4]: 380 nm
